# Like-named read-outs stand apart in the source and are kept apart here.
# Tested on: HBV rcDNA
# Test: HepDE19 assay with bDNA quantitation of HBV rcDNA
# Format: cell-based, hepatitis B virus
# How it was run: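 HepDE19 cells (HepG2-derived, Tet-regulated HBV replication) were deprived of tetracycline and then exposed to compounds for 7 days at 37 °C in 0.5% DMSO, 8-point titration from 25 μM. rcDNA was quantified by bDNA and EC50/EC90 came from 4-parameter fits. CC50 was measured by CellTiter-Glo ATP content on replicate plates after 4 days.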
# [1] = HepDE19 assay, inhibition of formation of rcDNA; read-out: DE-19bDNA EC50
# [2] = Hepatitis B virus, HepDE19, HepDE19 assay, inhibition of formation of rcDNA; read-out: DE-19bDNA EC50
# [3] = read-out: DE-19bDNA EC50; HepDE19 assay, inhibition of formation of rcDNA
SMILES,EC50 [1] [µM],other results
"CC(c1c[nH]c(=O)c2ccccc12)N(CC1CCN(S(C)(=O)=O)CC1)C(=O)Nc1ccc(F)c(Cl)c1 (single isomer, unassigned) [Compound 204, 3-(3-Chloro-4-fluorophenyl)-1-((1-(methylsulfonyl)piperidin-4-yl)methyl)-1-(1-(1-oxo-1,2-dihydroisoquinolin-4-yl)ethyl)urea]",0.06,
"CC(c1cn(CCO)c(=O)c2ccccc12)N(C)C(=O)Nc1ccc(F)c(Cl)c1 (single isomer, unassigned) [Compound 205, 3-(3-Chloro-4-fluorophenyl)-1-(1-(2-(2-hydroxyethyl)-1-oxo-1,2-dihydroisoquinolin-4-yl)ethyl)-1-methylurea]",,EC50 [2]: 0.16 µM
"CC(c1cn(CCCO)c(=O)c2ccccc12)N(C)C(=O)Nc1ccc(F)c(Cl)c1 (single isomer, unassigned) [Compound 206, 3-(3-Chloro-4-fluorophenyl)-1-(1-(2-(3-hydroxypropyl)-1-oxo-1,2-dihydroisoquinolin-4-yl)ethyl)-1-methylurea]",,EC50 [2]: 0.85 µM
"CC(c1c[nH]c(=O)c2ccccc12)N(CC1CCN(C)CC1)C(=O)Nc1ccc(F)c(Cl)c1 (single isomer, unassigned) [Compound 207, 3-(3-Chloro-4-fluorophenyl)-1-((1-methylpiperidin-4-yl)methyl)-1-(1-(1-oxo-1,2-dihydroisoquinolin-4-yl)ethyl)urea]",,EC50 [2]: 9 µM
"CC(c1c[nH]c(=O)c2ccccc12)N(CCC(=O)O)C(=O)Nc1ccc(F)c(Cl)c1 (single isomer, unassigned) [Compound 208, 3-(3-(3-Chloro-4-fluorophenyl)-1-(1-(1-oxo-1,2-dihydroisoquinolin-4-yl)ethyl)ureido)propanoic acid]",,EC50 [2]: 3.3 µM
"CC(c1c[nH]c(=O)c2ccccc12)N(CC(C)(C)CO)C(=O)Nc1ccc(F)c(Cl)c1 (single isomer, unassigned) [Compound 209, 3-(3-Chloro-4-fluorophenyl)-1-(3-hydroxy-2,2-dimethylpropyl)-1-(1-(1-oxo-1,2-dihydroisoquinolin-4-yl)ethyl)urea]",7.9,
"CC(c1c[nH]c(=O)c2ccccc12)N(CC(C)(C)CO)C(=O)Nc1ccc(F)c(Cl)c1 (single isomer, unassigned) [Compound 210, 3-(3-Chloro-4-fluorophenyl)-1-(3-hydroxy-2,2-dimethylpropyl)-1-(1-(1-oxo-1,2-dihydroisoquinolin-4-yl)ethyl)urea]",0.1,
"CC(c1c[nH]c(=O)c2ccccc12)N(CC[C@@H](C)O)C(=O)Nc1ccc(F)c(Cl)c1 (single isomer, unassigned) [Compound 211]",2.7,
"CC(c1c[nH]c(=O)c2ccccc12)N(CC[C@@H](C)O)C(=O)Nc1ccc(F)c(Cl)c1 (single isomer, unassigned) [Compound 212]",0.02,
"CC(c1c[nH]c(=O)c2ccccc12)N(CC[C@H](C)O)C(=O)Nc1ccc(F)c(Cl)c1 (single isomer, unassigned) [Compound 213]",,EC50 [3]: 3.6 µM
"CC(c1c[nH]c(=O)c2ccccc12)N(CC[C@H](C)O)C(=O)Nc1ccc(F)c(Cl)c1 (single isomer, unassigned) [Compound 214]",,EC50 [3]: 0.047 µM
"CC(c1c[nH]c(=O)c2ccccc12)N(C[C@@H](C)O)C(=O)Nc1ccc(F)c(Cl)c1 (single isomer, unassigned) [Compound 215]",23,
"CC(c1c[nH]c(=O)c2ccccc12)N(C[C@@H](C)O)C(=O)Nc1ccc(F)c(Cl)c1 (single isomer, unassigned) [Compound 216]",0.09,
"CC(c1c[nH]c(=O)c2ccccc12)N(C[C@H](C)O)C(=O)Nc1ccc(F)c(Cl)c1 (single isomer, unassigned) [Compound 217]",8.2,
"CC(c1c[nH]c(=O)c2ccccc12)N(C[C@H](C)O)C(=O)Nc1ccc(F)c(Cl)c1 (single isomer, unassigned) [Compound 218]",0.08,
"CNS(=O)(=O)CCCN(C(=O)Nc1ccc(F)c(Cl)c1)C(C)c1c[nH]c(=O)c2ccccc12 (single isomer, unassigned) [Compound 220, 3-(3-(3-Chloro-4-fluorophenyl)-1-(1-(1-oxo-1,2-dihydroisoquinolin-4-yl)ethyl)ureido)-N-methylpropane-1-sulfonamide]",,EC50 [2]: 0.14 µM
"Cc1[nH]c(=O)c2ccccc2c1C(C)N(C)C(=O)Nc1ccc(F)c(Cl)c1 (single isomer, unassigned) [Compound 222, 3-(3-Chloro-4-fluorophenyl)-1-methyl-1-(1-(3-methyl-1-oxo-1,2-dihydroisoquinolin-4-yl)ethyl)urea]",0.62,

SMILES,EC50 [1] [µM],other results
"Cc1[nH]c(=O)c2ccccc2c1C(C)N(C)C(=O)Nc1ccc(F)c(Cl)c1 (single isomer, unassigned) [Compound 223, 3-(3-Chloro-4-fluorophenyl)-1-methyl-1-(1-(3-methyl-1-oxo-1,2-dihydroisoquinolin-4-yl)ethyl)urea]",0.027,
"CC(c1c[nH]c(=O)c2ccccc12)N(CCCC(=O)O)C(=O)Nc1ccc(F)c(Cl)c1 (single isomer, unassigned) [Compound 227, 4-(3-(3-Chloro-4-fluorophenyl)-1-(1-(1-oxo-1,2-dihydroisoquinolin-4-yl)ethyl)ureido)butanoic acid]",4.9,
"CNc1ncc(C(C)N(C)C(=O)Nc2ccc(F)c(Cl)c2)c2ccccc12 (single isomer, unassigned) [Compound 231, 3-(3-Chloro-4-fluorophenyl)-1-methyl-1-(1-(1-(methylamino)isoquinolin-4-yl)ethyl)urea]",12,
"CNc1ncc(C(C)N(C)C(=O)Nc2ccc(F)c(Cl)c2)c2ccccc12 (single isomer, unassigned) [Compound 232, 3-(3-Chloro-4-fluorophenyl)-1-methyl-1-(1-(1-(methylamino)isoquinolin-4-yl)ethyl)urea]",0.12,
"CC(c1cnc(N(C)C)c2ccccc12)N(C)C(=O)Nc1ccc(F)c(Cl)c1 (single isomer, unassigned) [Compound 233, 3-(3-Chloro-4-fluorophenyl)-1-(1-(1-(dimethylamino)isoquinolin-4-yl)ethyl)-1-methylurea]",14,
"CC(c1cnc(N(C)C)c2ccccc12)N(C)C(=O)Nc1ccc(F)c(Cl)c1 (single isomer, unassigned) [Compound 234, 3-(3-Chloro-4-fluorophenyl)-1-(1-(1-(dimethylamino)isoquinolin-4-yl)ethyl)-1-methylurea]",0.65,
"Cc1cc(NC(=O)N(C)C(C)c2c(C)[nH]c(=O)c3ccccc23)ccc1F (single isomer, unassigned) [Compound 236, 3-(4-Fluoro-3-methylphenyl)-1-methyl-1-(1-(3-methyl-1-oxo-1,2-dihydroisoquinolin-4-yl)ethyl)urea]",0.41,
"Cc1cc(NC(=O)N(C)C(C)c2c(C)[nH]c(=O)c3ccccc23)ccc1F (single isomer, unassigned) [Compound 237, 3-(4-Fluoro-3-methylphenyl)-1-methyl-1-(1-(3-methyl-1-oxo-1,2-dihydroisoquinolin-4-yl)ethyl)urea]",0.04,
"CC(c1cnc(N)c2ccccc12)N(C)C(=O)Nc1ccc(F)c(Cl)c1 (single isomer, unassigned) [Compound 238, 1-(1-(1-Aminoisoquinolin-4-yl)ethyl)-3-(3-chloro-4-fluorophenyl)-1-methylurea]",3.4,
"CC(c1cnc(N)c2ccccc12)N(C)C(=O)Nc1ccc(F)c(Cl)c1 (single isomer, unassigned) [Compound 239, 1-(1-(1-Aminoisoquinolin-4-yl)ethyl)-3-(3-chloro-4-fluorophenyl)-1-methylurea]",0.21,
"CCNc1ncc(C(C)N(C)C(=O)Nc2ccc(F)c(Cl)c2)c2ccccc12 (single isomer, unassigned) [Compound 240, 3-(3-Chloro-4-fluorophenyl)-1-(1-(1-(ethylamino)isoquinolin-4-yl)ethyl)-1-methylurea]",11.5,
"CCNc1ncc(C(C)N(C)C(=O)Nc2ccc(F)c(Cl)c2)c2ccccc12 (single isomer, unassigned) [Compound 241, 3-(3-Chloro-4-fluorophenyl)-1-(1-(1-(ethylamino)isoquinolin-4-yl)ethyl)-1-methylurea]",0.11,
"CC(c1cnc(NCCO)c2ccccc12)N(C)C(=O)Nc1ccc(F)c(Cl)c1 (single isomer, unassigned) [Compound 242, 3-(3-Chloro-4-fluorophenyl)-1-(1-(1-((2-hydroxyethyl)amino)isoquinolin-4-yl)ethyl)-1-methylurea]",0.17,
"CC(c1cnc(NCCO)c2ccccc12)N(C)C(=O)Nc1ccc(F)c(Cl)c1 (single isomer, unassigned) [Compound 243, 3-(3-Chloro-4-fluorophenyl)-1-(1-(1-((2-hydroxyethyl)amino)isoquinolin-4-yl)ethyl)-1-methylurea]",9.9,
"CC(c1cnc(NCc2ncn(C)n2)c2ccccc12)N(C)C(=O)Nc1ccc(F)c(Cl)c1 (single isomer, unassigned) [Compound 245, 3-(3-Chloro-4-fluorophenyl)-1-methyl-1-(1-(1-(((1-methyl-1H-1,2,4-triazol-3-yl)methyl)amino)isoquinolin-4-yl)ethyl)urea]",13,
"CC(c1cnc(NCc2ncn(C)n2)c2ccccc12)N(C)C(=O)Nc1ccc(F)c(Cl)c1 (single isomer, unassigned) [Compound 246, 3-(3-Chloro-4-fluorophenyl)-1-methyl-1-(1-(1-(((1-methyl-1H-1,2,4-triazol-3-yl)methyl)amino)isoquinolin-4-yl)ethyl)urea]",0.14,
"CC(c1cnc(NCc2nc[nH]n2)c2ccccc12)N(C)C(=O)Nc1ccc(F)c(Cl)c1 (single isomer, unassigned) [Compound 247, 1-(1-(1-(((1H-1,2,4-Triazol-3-yl)methyl)amino)isoquinolin-4-yl)ethyl)-3-(3-chloro-4-fluorophenyl)-1-methylurea]",0.39,

# From US20230045421A1 (priority 2018, published 2023)
